What was measured:
[1] = test system: ATXN1[82Q] Purkinje neurons; experiment: Whole-cell patch-clamp recordings: membrane potential and after-hyperpolarization (AHP); format: cell-based, mice
[2] = test system: ATXN1[82Q] Purkinje neurons; experiment: Analysis of intrinsic dendritic excitability (dendritic calcium spikes); format: cell-based, mice
[3] = both, mouse, in vivo
Protocol: (§1) SKA-31 was dissolved in drinking water at 600 μM for all studies. […] For vehicle treatment, drinking water containing 0.05% β-(hydroxypropyl)-cyclodextrin, NaOH, and sucrose was used. Water bottles were changed twice weekly. Mice were treated with water bottles beginning at 28 days of age and maintained on water bottles for the duration of the experiment.

[4] = Water solubility (preparation of drinking water); format: physicochemical
Protocol: as §1

[5] = test system: non-firing ATXN1[82Q] Purkinje neurons; experiment: Cell-attached recordings of Purkinje neuron spiking in acute cerebellar slices; format: cell-based, mice; settings: 5 weeks of age, chlorzoxazone 50 μM, baclofen 10 μM, SKA-31 10 μM, 1-EBIO 100 μM
SCA patients = settings: human, in vivo

In the case of Nc1nc2c(ccc3ccccc32)s1 [SKA-31, Naphtho[1,2-d]thiazol-2-ylamine], the “duration of the AHP” value ([1]; SKA-31 10 μM, chlorzoxazone 50 μM and baclofen 10 μM) is reported as “extended the duration of the AHP”, the “dendritic (hyper)excitability: threshold of injected current to elicit dendritic calcium spikes” value [2] is reported as “does not reduce dendritic hyperexcitability” and the brain level [3] is reported as 1830 ± 1300 nM. The plasma level [3] was 39.39 ± 8.05 nM and the water solubility [4] was “not easily water-soluble”.
For NCC(CC(=O)O)c1ccc(Cl)cc1 (stereo not drawn) [baclofen, Baclofen], the “restoration of repetitive (tonic) spiking in non-firing Purkinje neurons” value [5] was “Neither chlorzoxazone alone nor baclofen alone consistently restores spiking”, the “membrane potential of depolarized Purkinje neurons after the agent” value [1] was −52 mV and the “dendritic (hyper)excitability: threshold of injected current to elicit dendritic calcium spikes” value [2] was “reduce dendritic hyperexcitability”. For the same molecule, the “effect of baclofen on dendritic excitability in the presence of TEA” value ([2]; TEA 1 mM, baclofen 2 μM) was “does not block the effect of baclofen”, the “effect of baclofen on dendritic excitability in the presence of U73122” value ([2]; U73122 10 μM in recording pipette (phospholipase C inhibitor), baclofen 2 μM) was “did not prevent the effect of baclofen on dendritic excitability” and the “effect of baclofen on dendritic excitability in the presence of barium” value ([2]; barium 500 μM, baclofen 2 μM) was “did not prevent the effect of baclofen”. For the same molecule, the “effect of baclofen on dendritic excitability with cesium in the recording pipette” value ([2]; cesium chloride 140 mM in the recording pipette, baclofen 2 μM) was “prevents the effect of baclofen”, the brain level [3] was 377.35 ± 58.50 nM and the plasma level [3] was 3060 ± 510 nM. The “Other comments: tolerability” value (SCA patients) was “Could not tolerate;”.

— patent US11382897B2, “Therapeutic combination for treatment of cerebellar ataxia” (The Regents of the University of Michigan, priority 2017, dated 2022)
